Experimental data from patent US20100279997A1, “ANALGESIC THAT BINDS FILAMIN A” (priority 2009, published 2010).

Biological target: T1, μ opiate receptor (MOR) (Rattus norvegicus, UniProt P33535)
T1 construct: from tissue; host or cells: striatal tissue (membrane preparation)
Test: MOR agonist activity, [35S]GTPγS binding assay using striatal membranes
Assay type: biochemical
Settings: for [35S]GTPγS binding to Gαo, FLNA-binding compound as agonist 0.1 μM: 0.1 μM compound; for [35S]GTPγS binding to Gαo, FLNA-binding compound as agonist 0.1 μM / [35S]GTPγS binding to Gαo, FLNA-binding compound as agonist 1 μM: striatal membranes; for [35S]GTPγS binding to Gαo, FLNA-binding compound as agonist 1 μM + BFNA: 1 μM compound + 1 μM β-funaltrexamine; for [35S]GTPγS binding to Gαo, FLNA-binding compound as agonist 1 μM: 1 μM compound; for % DAMGO + BFNA: relative to DAMGO + BFNA; for % DAMGO (0.1 μM) / % DAMGO (1 μM): relative to DAMGO
Description: To assess the μ opiate receptor (MOR) agonist activity of positive compounds from the FLNA screening, compounds were tested in a [^35S]GTPγS binding assay using striatal membranes.
Striatal tissue was homogenized in 10 volumes of ice cold 25 mM HEPES buffer, pH 7.4, which contained 1 mM EGTA, 100 mM sucrose, 50 μg/ml leupeptin, 0.04 mM PMSF, 2 μg/ml soybean trypsin inhibitor and 0.2% 2-mercaptoethanol. The homogenates were centrifuged at 800×g for 5 minutes and the supernatants were centrifuged at 49,000×g for 20 minutes. The resulting pellets were suspended in 10 volume of reaction buffer, which contained 25 mM HEPES, pH 7.5, 100 mM NaCl, 50 μg/ml leupeptin, 2 μg/ml soybean trypsin inhibitor, 0.04 mM PMSF and 0.02% […].
The resultant striatal membrane preparation (200 μg) was admixed and maintained (incubated) at 30° C. for 5 minutes in reaction buffer as above that additionally contained 1 mM MgCl2 and 0.5 nM [^35S]GTPγS (0.1 μCi/assay, PerkinElmer Life and Analytical Sciences) in a total volume of 250 μl and continued for 5 minutes in the absence or presence of 0.1-10 μM of an assayed compound of interest. The reaction was terminated by dilution with 750 μl of ice-cold reaction buffer that contained 20 mM MgCl2 and 1 mM EGTA and immediate centrifugation at 16,000×g for 5 minutes.
The resulting pellet was solubilized by sonicating for 10 seconds in 0.5 ml of immunoprecipitation buffer containing 0.5% digitonin, 0.2% sodium cholate and 0.5% NP-40. Normal rabbit serum (1 μl) was added to 1 ml of lysate and incubated at 25° C. for 30 minutes. Nonspecific immune complexes were removed by incubation with 25 μl of protein A/G-conjugated agarose beads at 25° C. for 30 minutes followed by centrifugation at 5,000×g at 4° C. for 5 minutes. The supernatant was divided and separately incubated at 25° C. for 30 minutes with antibodies raised against Gao proteins (1:1,000 dilutions).
The immunocomplexes so formed were collected by incubation at 25° C. for 30 minutes with 40 μl of agarose-conjugated protein A/G beads and centrifugation at 5,000×g at 4° C. for 5 minutes. The pellet was washed and suspended in buffer containing 50 mM Tris-HCl, pH 8.0, and 1% NP-40. The radioactivity in the suspension was determined by liquid scintillation spectrometry. […] DAMGO (H-Tyr-D-Ala-Gly-N-MePhe-Gly-OH; 1 or 10 μM) was used as a positive control.

T1 sequence (P33535 whole entry): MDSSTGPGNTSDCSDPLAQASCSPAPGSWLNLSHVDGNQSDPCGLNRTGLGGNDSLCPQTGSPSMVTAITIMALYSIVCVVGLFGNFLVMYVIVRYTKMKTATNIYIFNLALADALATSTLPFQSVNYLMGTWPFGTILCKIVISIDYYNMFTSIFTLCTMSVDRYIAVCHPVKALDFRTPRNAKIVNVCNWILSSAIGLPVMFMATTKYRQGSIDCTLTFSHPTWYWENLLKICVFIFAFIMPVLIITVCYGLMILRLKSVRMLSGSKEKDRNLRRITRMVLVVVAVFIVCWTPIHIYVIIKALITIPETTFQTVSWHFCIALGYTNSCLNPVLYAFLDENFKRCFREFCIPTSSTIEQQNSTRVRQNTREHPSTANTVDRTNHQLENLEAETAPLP

SMILES	[35S]GTPγS binding to Gαo, FLNA-binding compound as agonist 0.1 μM [%]	[35S]GTPγS binding to Gαo, FLNA-binding compound as agonist 1 μM + BFNA [%]	[35S]GTPγS binding to Gαo, FLNA-binding compound as agonist 1 μM [%]	% DAMGO + BFNA [%]	% DAMGO (0.1 μM) [%]	% DAMGO (1 μM) [%]
OC(COc1cccc(C(F)(F)F)c1)CN1CCc2ccccc2C1 (stereo not drawn) [Compound A0054]	74.9	114.1	159.2	–	–	–
CC1CCC(C(C)C)C(OCC(O)CN2CC(C)CC(C)C2)C1 (stereo not drawn) [Compound A0008]	163.8	133.9	235.0	–	–	–
CC1CCC(C(C)C)C(OCC(O)CN2CCCCC2)C1 (stereo not drawn) [Compound A0005]	179.7	23.5	239.2	–	–	–
CC1CCC(C(C)C)C(OCC(O)CN2CCN(CCc3ccccc3)CC2)C1 (stereo not drawn) [Compound A0020]	168.6	67.4	217.4	–	–	–
CC1CCC(C(C)C)C(OCC(O)CN2CCCCC2C)C1 (stereo not drawn) [Compound A0007]	102.0	40.4	221.9	–	–	–
CC1CCC(C(C)C)C(OCC(O)CN2CCCCC2=O)C1 (stereo not drawn) [Compound A0036]	144.1	63.2	167.5	–	–	–
CC1CN(CC(O)COc2cccc(C(F)(F)F)c2)CC(C)O1 (stereo not drawn) [Compound A0051]	290.4	211.6	386.6	–	–	–
COc1ccc(OCC(O)CN2CC(C)OC(C)C2)cc1 (stereo not drawn) [Compound A0048]	233.7	167.2	302.9	–	–	–
OC(COc1ccc(Br)c(F)c1)CN1CCCCC1 (stereo not drawn) [Compound A0058]	70.7	59.9	244.3	–	–	–
CN(C)c1cccc(OCC(O)CN2CCc3ccccc3C2)c1 (stereo not drawn) [Compound A0050]	151.0	81.0	189.3	–	–	–
COc1c2c(cc3c1OCO3)CCN(CC(O)COC1CC(C)CCC1C(C)C)C2 (stereo not drawn) [Compound A0061]	110.3	10.7	197.1	–	–	–
CC1CCC(C(C)C)C(OCC(O)CN2CCC(=O)CC2)C1 (stereo not drawn) [Compound A0060]	99.7	14.3	158.2	–	–	–
CC1CN(CC(O)COC2CCCCC2)CC(C)O1 (stereo not drawn) [Compound A0017]	161.9	65.2	246.0	–	–	–
CC1CCC(C(C)C)C(OCC(O)CN2CCCCCC2)C1 (stereo not drawn) [Compound A0013]	102.1	86.1	164.8	–	–	–
CC1CN(CC(O)COc2ccccc2Br)CC(C)O1 (stereo not drawn) [Compound A0043]	183.3	89.1	223.8	–	–	–
CC1CCC(C(C)C)C(OCC(O)CN(C(C)C)C(C)C)C1 (stereo not drawn) [Compound A0037]	177.9	104.6	236.2	141.5	90.7	85.6

SMILES	[35S]GTPγS binding to Gαo, FLNA-binding compound as agonist 0.1 μM [%]	[35S]GTPγS binding to Gαo, FLNA-binding compound as agonist 1 μM + BFNA [%]	[35S]GTPγS binding to Gαo, FLNA-binding compound as agonist 1 μM [%]	% DAMGO + BFNA [%]	% DAMGO (0.1 μM) [%]	% DAMGO (1 μM) [%]
CC1CCC(C(C)C)C(OCC(O)CN2CCCc3ccccc32)C1 (stereo not drawn) [Compound A0068]	73.9	98.1	110.4	–	–	–
CC1CCC(C(C)C)C(OCC(O)CN2CC(C)OC(C)C2)C1 (stereo not drawn) [Compound A0032-1]	187.4	224.5	324.5	303.8	95.5	117.6
CC1CCC(C(C)C)C(OCC(O)CN2CCN(CCCN3CCOCC3)CC2)C1 (stereo not drawn) [Compound A0026]	140.7	120.8	179.8	–	–	–
CC1CN(CC(O)COc2cc(F)cc(F)c2)CC(C)O1 (stereo not drawn) [Compound A0046]	257.5	140.0	354.1	189.4	131.2	128.3
CC1CN(CC(O)COc2ccc(Br)c(Cl)c2)CC(C)O1 (stereo not drawn) [Compound A0045]	143.9	99.2	274.2	–	–	–
COc1ccc(N2CCN(CC(O)COC3CC(C)CCC3C(C)C)CC2)c(OC)c1 (stereo not drawn) [Compound A0012]	149.3	122.4	185.7	–	–	–
CC1CN(CC(O)COc2ccc(Cl)cc2)CC(C)O1 (stereo not drawn) [Compound A0047]	233.0	116.5	255.0	–	–	–
OC(COc1cccc(F)c1)CN1CCc2ccccc2C1 (stereo not drawn) [Compound A0055]	89.8	33.5	195.2	–	–	–
CC1CCC(C(C)C)C(OCC(O)CN2CCC2)C1 (stereo not drawn) [Compound A0015]	110.9	62.5	150.1	–	–	–
CC1CCC(C(C)C)C(OCC(O)CN2CCOCC2)C1 (stereo not drawn) [Compound A0004]	97.4	86.0	144.2	–	–	–
COc1ccc(OCC(O)Cn2ccc3ccccc32)cc1 (stereo not drawn) [Compound A0077]	300.1	103.5	334.7	470.5	170.5	132.3
OC(COc1ccc(Br)c(F)c1)CN1CCSCC1 (stereo not drawn) [Compound A0059]	99.2	85.7	129.9	–	–	–
CC1CCC(C(C)C)C(OCC(O)CN2CCCN(C)CC2)C1 (stereo not drawn) [Compound A0010]	277.2	190.3	319.0	–	–	–
COc1ccc(OCC(O)CN2CCc3ccccc3C2)cc1 (stereo not drawn) [Compound A0053]	78.5	15.1	118.2	–	–	–
CC1CCC(C(C)C)C(OCC(O)CN2CCc3ccccc3C2)C1 (stereo not drawn) [Compound A0040]	46.1	16.7	149.0	–	–	–
CC1CCC(C(C)C)C(OCC(O)CN2CCC(=O)C(C)C2)C1 (stereo not drawn) [Compound A0056]	115.6	17.4	129.6	–	–	–
